According to publication PMC4241505 (Nature communications, 2014):
Ends that are not written are not given here.

System: cathepsins B, H, and S
Conditions: pH 5

| Compound | Peptides detected on MALDI after digesting synthetic epitope with cathepsins |
| --- | --- |
| CC(C)C[C@H](NC(=O)[C@H](CCCCN)NC(=O)[C@H](CC(C)C)NC(=O)[C@@H](NC(=O)[C@H](CC(N)=O)NC(=O)[C@H](CCC(N)=O)NC(=O)[C@H](CCCCN)NC(=O)[C@@H](NC(=O)[C@H](Cc1ccc(O)cc1)NC(=O)[C@H](CCCCN)NC(=O)[C@@H]1CCCN1)C(C)C)[C@@H](C)O)C(=O)N[C@@H](C)C(=O)N[C@H](C(=O)O)[C@@H](C)O [HA(306–318)] | PKYVKQNTLK (m/z 1218 Da) |
| NRERRGIALDGKIKHE [hSA(291–306)] | NRERRGIALDGKIKHE (m/z 1892 Da) NRERRGIALDGKIK (m/z 1627 Da) |
